Measured values reported in US20120021437A1, “TETRANOR-PGDM/PGJM SPECIFIC IMMUNOGENS, ANTIBODIES, TRACERS, ASSAY KITS AND METHODS FOR MAKING SAME” (Cayman Chemical Company, Incorporated, priority 2010, published 2012).

These compounds were tested on Tetranor-PGDM EIA Antiserum (assay: Cross-reactivity testing of the antibody in competitive tetranor-PGDM EIA). Conditions: Specificity of the Tetranor-PGDM EIA Antiserum; Example 3 Step D2c.
Procedure: To determine cross-reactivity of an antibody, the standard curve using optimal tracer and Ab dilutions according the kit instructions was set up. Tetranor PGDM was diluted to 10 ng/mL for the first point in the standard curve and diluted 2.5-fold serially 7 times. First standard dilutions (10 μg/mL) of tetranor-PGJM, tetranor-PGEM, tetranor-PGFM, PGA2, PGD2, PGE2, PGF2α, PGJ2, 13,14-dihydro-15-keto PGD2, 13,14-dihydro-15-keto-PGE2, 13,14-dihydro-15-keto-PGF2, were prepared and 7 additional 6-fold serial dilutions were performed. IC50s of all compounds were determined and each percent cross-reactivity (% XR) values of the potentially cross-reactive compounds was determined by dividing the IC50 of tetranor-PGDM by the IC50 of the test compound and multiplying by 100.

Compound	Cross-reactivity (% XR)
CCCCCC(=O)CC[C@H]1C(=O)C[C@H](O)[C@@H]1C/C=C\CCCC(=O)O [13,14-dihydro-15-keto Prostaglandin D2]	<0.01%
CCCCCC(=O)CC[C@H]1[C@H](O)CC(=O)[C@@H]1C/C=C\CCCC(=O)O [13,14-dihydro-15-keto Prostaglandin E2]	<0.01%
CCCCCC(=O)CC[C@@H]1[C@@H](C/C=C\CCCC(=O)O)[C@@H](O)C[C@H]1O [13,14-dihydro-15-keto Prostaglandin F2α]	<0.01%
CCCCC[C@H](O)/C=C/[C@H]1C=CC(=O)[C@@H]1C/C=C\CCCC(=O)O [Prostaglandin A2]	<0.01%
CCCCC[C@H](O)/C=C/[C@H]1C(=O)C[C@H](O)[C@@H]1C/C=C\CCCC(=O)O [Prostaglandin D2]	<0.01%
CCCCC[C@H](O)/C=C/[C@H]1[C@H](O)CC(=O)[C@@H]1C/C=C\CCCC(=O)O [Prostaglandin E2]	<0.01%
CCCCC[C@H](O)/C=C/[C@H]1C(=O)C=C[C@@H]1C/C=C\CCCC(=O)O [Prostaglandin J2]	<0.01%
O=C(O)CCCCC(=O)CC[C@H]1C(=O)C[C@H](O)[C@@H]1CCC(=O)O [tetranor-PGDM, 9α-hydroxy-11,15-dioxo-13,14-dihydro-2,3,4,5-tetranor-prostan-1,20-dioic acid]	100%
O=C(O)CCCCC(=O)CC[C@H]1[C@H](O)CC(=O)[C@@H]1CCC(=O)O [tetranor-PGEM]	0.3%
O=C(O)CCCCC(=O)CC[C@@H]1[C@@H](CCC(=O)O)[C@@H](O)C[C@H]1O [tetranor-PGFM]	<0.01%
O=C(O)CCCCC(=O)CC[C@H]1C(=O)C=C[C@@H]1CCC(=O)O [tetranor-PGJM]	376%
Prostaglandin F2α	<0.01%
